Test results from article PMC4721142, “Randomized controlled studies on the efficacy of antiarthritic agents in inhibiting cartilage degeneration and pain associated with progression of osteoarthritis in the rat” (Arthritis Research & Therapy, 2016).
Where “and” joins values, the source holds several entries; their conditions need not be identical. Equal entries are not always repeated.

Experiments:
MMT/MCLT rat model of OA [1] = assay: MMT/MCLT trial 1 weight bearing (daily morphine 10 mg/kg, tacrolimus 0.3 or 0.6 mg/kg, fluocinolone 5 or 10 μg/kg, clonidine 100 μg/kg, alendronate 10 μg/kg i.p.; curcumin, withaferin 50 mg/kg p.o.); format: in vivo; conditions: low or only dose
Method: Weight bearing (WB; incapacitance) was measured five times per day, once per week, using a Linton incapacitance meter (Stoelting Co., Wood Dale, IL, USA). Rats were acclimated to the meter before study initiation, and, similarly, immediately before WB, the animals were placed in the meter and allowed to acclimate for 2–5 minutes. Each hind paw was placed on a separate force plate so that the force exerted by each side could be averaged over a 5-second interval, and the mean of three readings was taken for each data point. Right paw force was compared with that on the left side for each group to confirm that animals were displaying incapacitance and/or pain behavior. Differences in force (left minus right) and right paw force as a percentage of the total force exerted by both paws were determined and compared between groups.
Following isoflurane anesthesia, the medial collateral ligament was transected just below its attachment to the meniscus in the right knee. The meniscus was cut at its narrowest point away from the ossicles so as not to damage the tibial surface and to ensure that the anterior and posterior meniscus halves were freely movable. […] In trial 2, drugs were administered IA weekly beginning 1 week following surgery. Three weeks postsurgery, animals were humanely killed and their right knees were collected for histopathology. All studies were conducted in accordance with the International Association for the Study of Pain Guidelines and were approved by the Bolder BioPATH IACUC (Boulder, CO, USA) in compliance with regulations before study initiation (IACUC protocol BBP03-006). Those running the studies were blinded to the treatments. See Additional file 1 for further details.
Isoflurane and the right knee area prepared for surgery. A skin incision was made over the medial aspect of the knee and the medial collateral ligament was exposed by blunt dissection and then transected. The medial meniscus was cut through the full thickness to simulate a complete tear and the skin was then closed with suture.
All pharmaceutical agents were prepared and stored as recommended by the supplier. Daily drug preparations were made fresh from stock solutions. […]
In Trial 2 drugs were […]
administered IA weekly beginning one week following surgery. […]
were delivered by gavage and were prepared in 0.3% Methyl Cellulose.
WB was measured five times a day, once a week, using a Linton incapacitance meter (Stoelting Co.) to assess pain behavior. Rats were acclimated to the incapacitance meter prior to study initiation.
Similarly, immediately prior to WB animals were placed in the incapacitance meter and allowed to acclimate for 2-5 minutes. Each hind paw was placed on a separate force plate so that the force exerted by each side could be averaged over a 5 second interval and the mean of three readings taken for each data point. Right paw force was compared to left for each group to confirm that animals were displaying incapacitance / pain behavior. Difference in force (left minus right) and right paw force as a percentage of the total force exerted by both paws were determined and compared between groups. Three weeks after surgery, animals were humanely euthanized and right knees collected for histopathology evaluation.
Figure 2. MMT/MCLT Trial Timeline […]
MMT/MCLT Dosing (once/day)
The study design and animal usage was approved by Bolder BioPATH’s Institutional Animal Care and Use Committee (IACUC) for compliance with regulations prior to study initiation (IACUC […]
Labs. Animals were identified by a distinct mark at the base of the tail delineating group and animal number. After randomization, all cages were labeled with protocol number, group numbers, and animal numbers with appropriate color-coding (see protocol).

MMP-13 = MMP-13 ELISA on supernatants of TNF-α-treated chondrogenic pellets; format: cell-based, human
MMT/MCLT rat model of OA [2] = assay: MMT/MCLT trial 1 histopathology (same doses); format: in vivo; conditions: low or only dose
Text: For MMT/MCLT rat knee joints, sections were cut in 200-μm steps; stained with toluidine blue (also with a right and left half per section); and similarly analyzed for cartilage degeneration, proteoglycan loss, collagen damage, and osteophyte formation. Results were averaged across the three sections for an overall semiquantitative score. Regional differences across the tibial plateau were taken into consideration by dividing each section into three zones delineated using an ocular micrometer (outside, middle, and inside). Scores were based on the percentage of area affected within the zone.
Cartilage degeneration in the tibia was scored on a 5-point scale as detailed in the Methods section of Additional file 1. The total extent of degeneration of the tibial plateau was measured (in micrometers) and included an analysis of cell loss, proteoglycan loss, and collagen damage. Significant cartilage degeneration reflecting any degeneration extending through more than 50 % of the cartilage thickness was also measured. Collagen damage across the medial tibial plateau (the most severely affected section of the two halves) was also quantified.
Osteophytes and femoral cartilage degeneration were analyzed as detailed in Additional file 1. Scoring of the osteophytes and categorization into small, medium, and large was performed using an ocular micrometer. The actual osteophyte measurement (tidemark to farthest distance point extending toward the synovium) was also recorded. The femoral cartilage degeneration score and the three-zone sum of the tibial cartilage degeneration scores (mean of three levels) were summed to create a total cartilage degeneration score. The mean osteophyte score for each joint was added to this value to create a total joint score. […]
Histopathology MMT/MCLT Model

NCCCC(O)(P(=O)(O)O)P(=O)(O)O [Alendronate, Alendronate sodium]
Weight bearing, hours with significant effect (MMT/MCLT rat model of OA [1]; day 7): 5 h
Weight bearing, hours with significant effect (MMT/MCLT rat model of OA [1]; day 14): 1 h
Effective range against MMP-13 (MMP-13): Not effective
Bone score (MMT/MCLT rat model of OA [2]; mean): 2.75
Femoral cartilage degeneration score (MMT/MCLT rat model of OA [2]; mean): 1.79 and 1.79 ± 0.60
Tibial cartilage degeneration score, 3-zone total (MMT/MCLT rat model of OA [2]; mean): 5.83
Tibial cartilage degeneration score, zone 1 (MMT/MCLT rat model of OA [2]; mean): 3.79
Tibial cartilage degeneration score, zone 2 (MMT/MCLT rat model of OA [2]; mean): 2.04
Tibial cartilage degeneration score, zone 3 (MMT/MCLT rat model of OA [2]; mean): 0.00
Tibial cartilage degeneration width, significant (MMT/MCLT rat model of OA [2]; mean): 650.00 µm
Tibial cartilage degeneration width, total (MMT/MCLT rat model of OA [2]; mean): 1175.00 µm
Tibial osteophyte measure (MMT/MCLT rat model of OA [2]; mean): 479.17 µm
Tibial osteophyte score (MMT/MCLT rat model of OA [2]; mean): 3.63
Total joint score (MMT/MCLT rat model of OA [2]; mean): 11.25
Total joint score w/o femur (MMT/MCLT rat model of OA [2]; mean): 9.46
% decrease, bone score (MMT/MCLT rat model of OA [2]; vs saline group): 15%
% decrease, femoral cartilage degeneration score (MMT/MCLT rat model of OA [2]; vs saline group): 2%
% decrease, osteophyte measure (MMT/MCLT rat model of OA [2]; vs saline group): 7%
% decrease, osteophyte score (MMT/MCLT rat model of OA [2]; vs saline group): 7%
% decrease, significant degeneration width (MMT/MCLT rat model of OA [2]; vs saline group): 11%
% decrease, tibial score 3-zone total (MMT/MCLT rat model of OA [2]; vs saline group): 11%
% decrease, tibial score zone 1 (MMT/MCLT rat model of OA [2]; vs saline group): 12%
% decrease, tibial score zone 2 (MMT/MCLT rat model of OA [2]; vs saline group): 8%
% decrease, tibial score zone 3 (MMT/MCLT rat model of OA [2]; vs saline group): 100%
% decrease, total degeneration width (MMT/MCLT rat model of OA [2]; vs saline group): 10%
% decrease, total joint score (MMT/MCLT rat model of OA [2]; vs saline group): 8%
% decrease, total joint score w/o femur (MMT/MCLT rat model of OA [2]; vs saline group): 10%
